Data reported in ChEMBL document CHEMBL5724806, “Unraveling interindividual differences and functional consequences of gut microbial metabolism of immunosuppressants” (2024).

Key:
Type in all cases: ADME
[1] = The drug is tested on Lactobacillus reuteri strain: DSM20016 for biotransformation under microaerobic condition. The drug concentrations were measured over 6 timepoints collected between 0 and 12 hours of incubation by liquid-chromatography-coupled mass spectrometry (LC–MS); set-up: dose 5 uM, timepoint 0, 1.5, 3, 6, 9, 12 hours; details: limosilactobacillus reuteri, 5 µM
[2] = The drug is tested on the gut metagenome community of T-04 with ENA study accession number: PRJEB31790 for biotransformation under anaerobic condition. The drug concentrations were measured over 7 timepoints collected between 0 and 12 hours of incubation by liquid-chromatography-coupled mass spectrometry (LC–MS); set-up: dose 5 uM, timepoint 0, 0.75, 1.5, 3, 6, 9, 12 hours; details: 5 µM
[3] = The drug is tested on Ruminococcus gnavus strain: ATCC29149 for biotransformation under anaerobic condition. The drug concentrations were measured over 6 timepoints collected between 0 and 12 hours of incubation by liquid-chromatography-coupled mass spectrometry (LC–MS); set-up: dose 5 uM, timepoint 0, 1.5, 3, 6, 9, 12 hours; details: mediterraneibacter gnavus, 5 µM
[4] = The drug is tested on Lactobacillus gasseri strain: DSM20243 for biotransformation under microaerobic condition. The drug concentrations were measured over 6 timepoints collected between 0 and 12 hours of incubation by liquid-chromatography-coupled mass spectrometry (LC–MS); set-up: dose 5 uM, timepoint 0, 1.5, 3, 6, 9, 12 hours; details: 5 µM
[5] = The drug is tested on the gut metagenome community of A-04 with ENA study accession number: PRJEB31790 for biotransformation under anaerobic condition. The drug concentrations were measured over 7 timepoints collected between 0 and 12 hours of incubation by liquid-chromatography-coupled mass spectrometry (LC–MS); set-up: dose 5 uM, timepoint 0, 0.75, 1.5, 3, 6, 9, 12 hours; details: 5 µM
[6] = The drug is tested on Prevotella copri strain: DSM18205 for biotransformation under anaerobic condition. The drug concentrations were measured over 6 timepoints collected between 0 and 12 hours of incubation by liquid-chromatography-coupled mass spectrometry (LC–MS); set-up: dose 5 uM, timepoint 0, 1.5, 3, 6, 9, 12 hours; details: segatella copri, 5 µM
[7] = The drug is tested on Actinomyces graevenitzii strain: DSM15540 for biotransformation under microaerobic condition. The drug concentrations were measured over 6 timepoints collected between 0 and 12 hours of incubation by liquid-chromatography-coupled mass spectrometry (LC–MS); set-up: dose 5 uM, timepoint 0, 1.5, 3, 6, 9, 12 hours; details: 5 µM
[8] = The drug is tested on Lactobacillus paracasei strain: ATCC27092 for biotransformation under anaerobic condition. The drug concentrations were measured over 6 timepoints collected between 0 and 12 hours of incubation by liquid-chromatography-coupled mass spectrometry (LC–MS); set-up: dose 5 uM, timepoint 0, 1.5, 3, 6, 9, 12 hours; details: lacticaseibacillus paracasei, 5 µM
[9] = The drug is tested on Capnocytophaga ochracea strain: DSM7271 for biotransformation under anaerobic condition. The drug concentrations were measured over 6 timepoints collected between 0 and 12 hours of incubation by liquid-chromatography-coupled mass spectrometry (LC–MS); set-up: dose 5 uM, timepoint 0, 1.5, 3, 6, 9, 12 hours; details: 5 µM
[10] = The drug is tested on the gut metagenome community of T-02 with ENA study accession number: PRJEB31790 for biotransformation under anaerobic condition. The drug concentrations were measured over 7 timepoints collected between 0 and 12 hours of incubation by liquid-chromatography-coupled mass spectrometry (LC–MS); set-up: dose 5 uM, timepoint 0, 0.75, 1.5, 3, 6, 9, 12 hours; details: 5 µM
[11] = The drug is tested on the gut metagenome community of T-02 with ENA study accession number: PRJEB31790 for biotransformation under microaerobic condition. The drug concentrations were measured over 7 timepoints collected between 0 and 12 hours of incubation by liquid-chromatography-coupled mass spectrometry (LC–MS); set-up: dose 5 uM, timepoint 0, 0.75, 1.5, 3, 6, 9, 12 hours; details: 5 µM
[12] = The drug is tested on Streptococcus sanguinis strain: DSM20567 for biotransformation under microaerobic condition. The drug concentrations were measured over 6 timepoints collected between 0 and 12 hours of incubation by liquid-chromatography-coupled mass spectrometry (LC–MS); set-up: dose 5 uM, timepoint 0, 1.5, 3, 6, 9, 12 hours; details: 5 µM
[13] = The drug is tested on Odoribacter splanchnicus strain: DSM20712 for biotransformation under anaerobic condition. The drug concentrations were measured over 6 timepoints collected between 0 and 12 hours of incubation by liquid-chromatography-coupled mass spectrometry (LC–MS); set-up: dose 5 uM, timepoint 0, 1.5, 3, 6, 9, 12 hours; details: 5 µM
[14] = The drug is tested on the gut metagenome community of P-03 with ENA study accession number: PRJEB31790 for biotransformation under anaerobic condition. The drug concentrations were measured over 7 timepoints collected between 0 and 12 hours of incubation by liquid-chromatography-coupled mass spectrometry (LC–MS); set-up: dose 5 uM, timepoint 0, 0.75, 1.5, 3, 6, 9, 12 hours; details: 5 µM
[15] = The drug is tested on Streptococcus sanguinis strain: DSM20567 for biotransformation under anaerobic condition. The drug concentrations were measured over 6 timepoints collected between 0 and 12 hours of incubation by liquid-chromatography-coupled mass spectrometry (LC–MS); set-up: dose 5 uM, timepoint 0, 1.5, 3, 6, 9, 12 hours; details: 5 µM
[16] = The drug is tested on the gut metagenome community of A-10 with ENA study accession number: PRJEB31790 for biotransformation under microaerobic condition. The drug concentrations were measured over 7 timepoints collected between 0 and 12 hours of incubation by liquid-chromatography-coupled mass spectrometry (LC–MS); set-up: dose 5 uM, timepoint 0, 0.75, 1.5, 3, 6, 9, 12 hours; details: 5 µM
[17] = The drug is tested on the gut metagenome community of A-06 with ENA study accession number: PRJEB31790 for biotransformation under anaerobic condition. The drug concentrations were measured over 7 timepoints collected between 0 and 12 hours of incubation by liquid-chromatography-coupled mass spectrometry (LC–MS); set-up: dose 5 uM, timepoint 0, 0.75, 1.5, 3, 6, 9, 12 hours; details: 5 µM
[18] = The drug is tested on Collinsella aerofaciens strain: DSM3979 for biotransformation under anaerobic condition. The drug concentrations were measured over 6 timepoints collected between 0 and 12 hours of incubation by liquid-chromatography-coupled mass spectrometry (LC–MS); set-up: dose 5 uM, timepoint 0, 1.5, 3, 6, 9, 12 hours; details: 5 µM
[19] = The drug is tested on Parabacteroides merdae strain: DSM19495 for biotransformation under anaerobic condition. The drug concentrations were measured over 6 timepoints collected between 0 and 12 hours of incubation by liquid-chromatography-coupled mass spectrometry (LC–MS); set-up: dose 5 uM, timepoint 0, 1.5, 3, 6, 9, 12 hours; details: 5 µM
[20] = The drug is tested on the gut metagenome community of T-03 with ENA study accession number: PRJEB31790 for biotransformation under anaerobic condition. The drug concentrations were measured over 7 timepoints collected between 0 and 12 hours of incubation by liquid-chromatography-coupled mass spectrometry (LC–MS); set-up: dose 5 uM, timepoint 0, 0.75, 1.5, 3, 6, 9, 12 hours; details: 5 µM
[21] = The drug is tested on Streptococcus salivarius strain: DSM20560 for biotransformation under microaerobic condition. The drug concentrations were measured over 6 timepoints collected between 0 and 12 hours of incubation by liquid-chromatography-coupled mass spectrometry (LC–MS); set-up: dose 5 uM, timepoint 0, 1.5, 3, 6, 9, 12 hours; details: 5 µM
[22] = The drug is tested on Streptococcus anginosus strain: DSM20563 for biotransformation under anaerobic condition. The drug concentrations were measured over 6 timepoints collected between 0 and 12 hours of incubation by liquid-chromatography-coupled mass spectrometry (LC–MS); set-up: dose 5 uM, timepoint 0, 1.5, 3, 6, 9, 12 hours; details: 5 µM
[23] = The drug is tested on the gut metagenome community of P-01 with ENA study accession number: PRJEB31790 for biotransformation under anaerobic condition. The drug concentrations were measured over 7 timepoints collected between 0 and 12 hours of incubation by liquid-chromatography-coupled mass spectrometry (LC–MS); set-up: dose 5 uM, timepoint 0, 0.75, 1.5, 3, 6, 9, 12 hours; details: 5 µM
[24] = The drug is tested on the gut metagenome community of A-01 with ENA study accession number: PRJEB31790 for biotransformation under microaerobic condition. The drug concentrations were measured over 7 timepoints collected between 0 and 12 hours of incubation by liquid-chromatography-coupled mass spectrometry (LC–MS); set-up: dose 5 uM, timepoint 0, 0.75, 1.5, 3, 6, 9, 12 hours; details: 5 µM
[25] = The drug is tested on Eubacterium rectale strain: DSM17629 for biotransformation under anaerobic condition. The drug concentrations were measured over 6 timepoints collected between 0 and 12 hours of incubation by liquid-chromatography-coupled mass spectrometry (LC–MS); set-up: dose 5 uM, timepoint 0, 1.5, 3, 6, 9, 12 hours; details: agathobacter rectalis, 5 µM

Row | SMILES | Bacterial Biotransformation [1] | Bacterial Biotransformation [2] | Bacterial Biotransformation [3] | Bacterial Biotransformation [4] | Bacterial Biotransformation [5] | Bacterial Biotransformation [6] | Bacterial Biotransformation [7] | Bacterial Biotransformation [8] | Bacterial Biotransformation [9] | Bacterial Biotransformation [10] | Bacterial Biotransformation [11] | Bacterial Biotransformation [12] | Bacterial Biotransformation [13] | Bacterial Biotransformation [14] | Bacterial Biotransformation [15] | Bacterial Biotransformation [16] | Bacterial Biotransformation [17] | Bacterial Biotransformation [18] | Bacterial Biotransformation [19] | Bacterial Biotransformation [20] | also measured
1 | CCOc1nc2cccc(C(=O)O)c2n1Cc1ccc(-c2ccccc2-c2nnn[nH]2)cc1 | Compound NOT metabolized | Compound NOT metabolized | Compound NOT metabolized | Compound NOT metabolized | Compound NOT metabolized | Compound NOT metabolized | Compound NOT metabolized | Compound NOT metabolized | Compound NOT metabolized | Compound NOT metabolized | Compound NOT metabolized | Compound NOT metabolized | Compound NOT metabolized | Compound NOT metabolized | Compound NOT metabolized | Compound NOT metabolized | Compound NOT metabolized | Compound NOT metabolized | Compound NOT metabolized | Compound NOT metabolized | Bacterial Biotransformation [21]: Compound NOT metabolized; Bacterial Biotransformation [22]: Compound NOT metabolized; Bacterial Biotransformation [23]: Compound NOT metabolized; Bacterial Biotransformation [24]: Compound NOT metabolized; Bacterial Biotransformation [25]: Compound NOT metabolized
2 | CCOC(=O)[C@H](CCc1ccccc1)N[C@@H](C)C(=O)N1[C@H](C(=O)O)C[C@@H]2CCC[C@@H]21 | Compound NOT metabolized | Compound NOT metabolized | Compound NOT metabolized | Compound NOT metabolized | Compound NOT metabolized | Compound NOT metabolized | Compound NOT metabolized | Compound NOT metabolized | Compound NOT metabolized | Compound NOT metabolized | Compound NOT metabolized | Compound NOT metabolized | Compound NOT metabolized | Compound NOT metabolized | Compound NOT metabolized | Compound NOT metabolized | Compound NOT metabolized | Compound NOT metabolized | Compound NOT metabolized | Compound NOT metabolized | Bacterial Biotransformation [21]: Compound metabolized; Bacterial Biotransformation [22]: Compound NOT metabolized; Bacterial Biotransformation [23]: Compound NOT metabolized; Bacterial Biotransformation [24]: Compound NOT metabolized; Bacterial Biotransformation [25]: Compound NOT metabolized
3 | C[C@@H](NCCCc1cccc(C(F)(F)F)c1)c1cccc2ccccc12 | Compound NOT metabolized | Compound NOT metabolized | Compound NOT metabolized | Compound NOT metabolized | Compound NOT metabolized | Compound NOT metabolized | Compound NOT metabolized | Compound NOT metabolized | Compound NOT metabolized | Compound NOT metabolized | Compound NOT metabolized | Compound NOT metabolized | Compound NOT metabolized | Compound NOT metabolized | Compound NOT metabolized | Compound NOT metabolized | Compound NOT metabolized | Compound NOT metabolized | Compound NOT metabolized | Compound NOT metabolized | Bacterial Biotransformation [21]: Compound NOT metabolized; Bacterial Biotransformation [22]: Compound NOT metabolized; Bacterial Biotransformation [23]: Compound NOT metabolized; Bacterial Biotransformation [24]: Compound NOT metabolized; Bacterial Biotransformation [25]: Compound NOT metabolized
